# Results published in the supplement of paper PMC10307832.
# Columns and labels:
# Assay in all cases: relative viability (nuclei count vs DMSO), 5 days (fraction); higher = more cells survive
# A-427 = system: A-427
# How it was run: (§1)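 One day after seeding in 1536-well plates, lung cancer cell lines were dosed by pin tool. Dosing was either single-drug or a fixed anchor-drug dose plus five library-drug doses (not always all listed) in √10 steps. After 5 days, nuclei were stained in one fix-and-stain step and counted on 4× images, and relative viability is the nuclei count of treated wells over that of vehicle wells, given as the median of duplicate plates.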
# BEN = system: BEN
# How it was run: as §1
# EKVX = system: EKVX
# How it was run: as §1
# IA-LM = system: IA-LM
# How it was run: as §1
# LC-2-ad = system: LC-2-ad
# How it was run: as §1
# LCLC-97TM1 = system: LCLC-97TM1
# How it was run: as §1
# LOU-NH91 = system: LOU-NH91
# How it was run: as §1
# LU99A = system: LU99A
# How it was run: as §1
# NCI-H1355 = system: NCI-H1355
# How it was run: as §1
# NCI-H1666 = system: NCI-H1666
# How it was run: as §1
# NCI-H1793 = system: NCI-H1793
# How it was run: as §1
# NCI-H1915 = system: NCI-H1915
# How it was run: as §1
# NCI-H1993 = system: NCI-H1993
# How it was run: as §1
# NCI-H2228 = system: NCI-H2228
# How it was run: as §1
# NCI-H2347 = system: NCI-H2347
# How it was run: as §1
# NCI-H23 = system: NCI-H23
# How it was run: as §1
# NCI-H460 = system: NCI-H460
# How it was run: as §1
# NCI-H520 = system: NCI-H520
# How it was run: as §1
# NCI-H650 = system: NCI-H650
# How it was run: as §1
# NCI-H838 = system: NCI-H838
# How it was run: as §1
# PC-3 [JPC-3] = system: PC-3 [JPC-3]
# How it was run: as §1
# RERF-LC-KJ = system: RERF-LC-KJ
# How it was run: as §1
# SW 1573 = system: SW 1573
# How it was run: as §1
smiles,measurement,setting,value
CCCCCCCCCCCC1=C(O)C(=O)C=C(O)C1=O [Embelin] + Cc1nc(NC(=O)N2CCC[C@H]2C(N)=O)sc1-c1ccnc(C(C)(C)C(F)(F)F)c1 [Alpelisib] (partner 2 µM),relative viability,A-427; first compound 0.08 µM,1.1
same,relative viability,A-427; first compound 0.8 µM,1.13
same,relative viability,A-427; first compound 2.53 µM,1.12
same,relative viability,A-427; first compound 8 µM,1.07
same,relative viability,BEN; first compound 0.08 µM,1.09
same,relative viability,BEN; first compound 0.8 µM,1.31
same,relative viability,BEN; first compound 2.53 µM,1.3
same,relative viability,BEN; first compound 8 µM,1.01
same,relative viability,EKVX; first compound 0.08 µM,0.849
same,relative viability,EKVX; first compound 0.8 µM,0.914
same,relative viability,EKVX; first compound 2.53 µM,0.999
same,relative viability,EKVX; first compound 8 µM,0.823
same,relative viability,IA-LM; first compound 0.08 µM,0.778
same,relative viability,IA-LM; first compound 0.8 µM,0.753
same,relative viability,IA-LM; first compound 2.53 µM,0.839
same,relative viability,IA-LM; first compound 8 µM,0.191
same,relative viability,LC-2-ad; first compound 0.08 µM,0.891
same,relative viability,LC-2-ad; first compound 0.8 µM,0.913
same,relative viability,LC-2-ad; first compound 2.53 µM,0.716
same,relative viability,LC-2-ad; first compound 8 µM,0.892
same,relative viability,LCLC-97TM1; first compound 0.8 µM,0.291
same,relative viability,LCLC-97TM1; first compound 2.53 µM,0.283
same,relative viability,LCLC-97TM1; first compound 8 µM,0.223
same,relative viability,LOU-NH91; first compound 0.08 µM,0.771
same,relative viability,LOU-NH91; first compound 0.8 µM,0.904
same,relative viability,LOU-NH91; first compound 2.53 µM,0.862
same,relative viability,LOU-NH91; first compound 8 µM,0.709
same,relative viability,LU99A; first compound 0.08 µM,0.558
same,relative viability,LU99A; first compound 0.8 µM,0.533
same,relative viability,LU99A; first compound 2.53 µM,0.561
same,relative viability,LU99A; first compound 8 µM,0.496
same,relative viability,NCI-H1355; first compound 0.08 µM,0.847
same,relative viability,NCI-H1355; first compound 0.8 µM,0.897
same,relative viability,NCI-H1355; first compound 2.53 µM,0.916
same,relative viability,NCI-H1355; first compound 8 µM,0.771
same,relative viability,NCI-H1666; first compound 0.08 µM,1.01
same,relative viability,NCI-H1666; first compound 0.8 µM,1.09
same,relative viability,NCI-H1666; first compound 2.53 µM,1.05
same,relative viability,NCI-H1666; first compound 8 µM,0.955
same,relative viability,NCI-H1793; first compound 0.08 µM,0.752
same,relative viability,NCI-H1793; first compound 0.8 µM,0.972
same,relative viability,NCI-H1793; first compound 2.53 µM,0.794
same,relative viability,NCI-H1793; first compound 8 µM,0.728
same,relative viability,NCI-H1915; first compound 0.08 µM,1.12
same,relative viability,NCI-H1915; first compound 0.8 µM,1.15
same,relative viability,NCI-H1915; first compound 2.53 µM,1.11
same,relative viability,NCI-H1915; first compound 8 µM,1.08
same,relative viability,NCI-H1993; first compound 0.08 µM,0.753
same,relative viability,NCI-H1993; first compound 0.8 µM,0.755
same,relative viability,NCI-H1993; first compound 2.53 µM,0.649
same,relative viability,NCI-H1993; first compound 8 µM,0.658
same,relative viability,NCI-H2228; first compound 0.08 µM,0.705
same,relative viability,NCI-H2228; first compound 0.8 µM,0.781
same,relative viability,NCI-H2228; first compound 2.53 µM,0.793
same,relative viability,NCI-H2228; first compound 8 µM,0.729
same,relative viability,NCI-H2347; first compound 0.08 µM,1.05
same,relative viability,NCI-H2347; first compound 0.8 µM,1.16
same,relative viability,NCI-H2347; first compound 2.53 µM,1.11
same,relative viability,NCI-H2347; first compound 8 µM,1.16
same,relative viability,NCI-H23; first compound 0.08 µM,0.606
same,relative viability,NCI-H23; first compound 0.8 µM,0.901
same,relative viability,NCI-H23; first compound 2.53 µM,0.844
same,relative viability,NCI-H23; first compound 8 µM,0.74
same,relative viability,NCI-H460; first compound 0.08 µM,0.448
same,relative viability,NCI-H460; first compound 0.8 µM,0.574
same,relative viability,NCI-H460; first compound 2.53 µM,0.698
same,relative viability,NCI-H460; first compound 8 µM,0.517
same,relative viability,NCI-H520; first compound 0.08 µM,1.05
same,relative viability,NCI-H520; first compound 0.8 µM,1.06
same,relative viability,NCI-H520; first compound 2.53 µM,0.896
same,relative viability,NCI-H520; first compound 8 µM,0.901
same,relative viability,NCI-H650; first compound 0.08 µM,1.14
same,relative viability,NCI-H650; first compound 0.8 µM,1.26
same,relative viability,NCI-H650; first compound 2.53 µM,1.02
same,relative viability,NCI-H650; first compound 8 µM,1.06
same,relative viability,NCI-H838; first compound 0.08 µM,1.01
same,relative viability,NCI-H838; first compound 0.8 µM,1
same,relative viability,NCI-H838; first compound 2.53 µM,1.12
same,relative viability,NCI-H838; first compound 8 µM,1.11
same,relative viability,PC-3 [JPC-3]; first compound 0.08 µM,1.03
same,relative viability,PC-3 [JPC-3]; first compound 0.8 µM,0.988
same,relative viability,PC-3 [JPC-3]; first compound 2.53 µM,1.08
same,relative viability,PC-3 [JPC-3]; first compound 8 µM,1.05
same,relative viability,RERF-LC-KJ; first compound 0.08 µM,0.856
same,relative viability,RERF-LC-KJ; first compound 0.8 µM,0.815
same,relative viability,RERF-LC-KJ; first compound 2.53 µM,1.07
same,relative viability,RERF-LC-KJ; first compound 8 µM,0.865
same,relative viability,SW 1573; first compound 0.08 µM,0.815
same,relative viability,SW 1573; first compound 0.8 µM,0.966
same,relative viability,SW 1573; first compound 2.53 µM,0.786
same,relative viability,SW 1573; first compound 8 µM,0.804
